Values after ≈ are worked out from the molar mass of the structure shown. Where two headings read alike, the source gives them in different places.

The test system of data set [1] is all tested bacterial strains, including non-staphylococci strains. In words: Broth microdilution MIC, summary over all strains tested. For orientation: Dilution methods test growth across graded concentrations, often in twofold steps.
Details of data set [2]: method as in PMID 20421948. Particulars: presence of water and oxygen; cited from earlier work.
Data set [3] relates to Bacillus subtilis xpt-lacZ. In words: Broth microdilution MIC. The class given is cell-based. The settings on record: B. subtilis xpt-lacZ, read-out: Broth Microdilution MIC.
Data set [4] concerns Staphylococcus aureus CMRSA-2. Description: Broth microdilution MIC. The data set is classed as cell-based. The source says:
(§1) Reference strains for this study (S. aureus ATCC 29213, ATCC 29740 [bovine mastitis strain Newbould], S. epidermidis ATCC 12228, E. coli ATCC 35695, E. faecalis ATCC 29212) were obtained from the American Type Culture Collection (ATCC, Rockville, MD). S. aureus strains CMRSA-10 and CMRSA-2 were obtained from the Laboratoire de santé publique du Québec (LSPQ, Sainte-Anne-de-Bellevue, QC, Canada) and are Canadian CA-MRSA USA-300 and HA-MRSA USA-100 clones, respectively. The strain E. coli imp4213 (lptD), used as a control in MIC assays, is a derivative of E. coli ATCC 35695 (E. coli MC4100) with an increased membrane permeability. […] Other MRSA strains used in this study are clinical isolates of human origin obtained from the microbiology laboratory of the Centre Hospitalier Universitaire de Sherbrooke (CHUS, Sherbrooke, QC, Canada). Bovine mastitis strains (S. aureus, S. chromogenes, S. haemolyticus, S. hominis, S. simulans) were obtained from the Canadian Bovine Mastitis and Milk Quality Research Network (CBRQMN, St-Hyacinthe, QC, Canada). Among these strains, S. aureus 2117 is a high producer of biofilm and was used in the biofilm-eradication assay. S. epidermidis isolates were provided by Centre de Recherche en Infectiologie (CRI) de Québec (Québec, QC, Canada).

Data set [5] relates to Staphylococcus aureus CMRSA-10. In words: Broth microdilution MIC. The data set is classed as cell-based.
Excerpt: as §1

Data set [6] has as its system S. aureus guanine riboswitch. On the set-up: method as in PMID 20421948. Particulars: cited from earlier work.
For the next data set, the system named is S. aureus. Set-up: method as in PMID 20421948. Particulars: compared with PC1; cited from earlier work.
Data set [7] has as its system Staphylococcus epidermidis ATCC 12228. Description: Broth microdilution MIC. Particulars: ATCC12228, read-out: Broth Microdilution MIC.
The subject of data set [8] is Escherichia coli ΔlptD4213. Description: microbe, parasite or virus in culture. The class given is cell-based. Particulars: read-out: Broth Microdilution MIC.
Excerpt: as §1

The nature of data set [9]: MTT assay. The settings on record: human, HepG2 cells. The class given is cell-based. For orientation: Formazan colour is commonly taken as a measure of viable cells.
Data set [10] in a line: LDH release assay. The data set is classed as cell-based. The settings on record: human, HepG2 cells. On the technique in general: Release of lactate dehydrogenase indicates damage to the cell membrane.
Data set [11] deals with Escherichia coli ATCC 35695. In words: Broth microdilution MIC. Particulars: ATCC35695, read-out: Broth Microdilution MIC.
Data set [12] deals with guanine riboswitch-lacZ fusion construct (xpt-lacZ). Description: Riboswitch regulation assay (lacZ-gene reporter). The class given is cell-based, B. subtilis. An excerpt:
The novel pyrimidine compounds, especially PC206, display specificity and potency against some staphylococci but not the other bacterial genus (Table 1 and Table 2). Because they are structurally derived from PC1 and PC2, these novel antibiotic candidates are expected to have the same mode of action. […] To verify this hypothesis, a strain of B. subtilis with a guanine riboswitch-lacZ fusion construct (named xpt-lacZ) integrated in its chromosome was exposed to these new antimicrobials. […] Therefore, it is an adequate reporter species. The metabolization of substrate ONPG into colored ONP was normalized by the bacterial suspension absorbance at 600 nm (Miller units) and relativized to the untreated condition.
β-galactosidase gene expression in the presence of the new pyrimidine analogs was studied, using an xpt-lacZ transcriptional fusion construct integrated in the genome of B. subtilis as previously described. Briefly, cultures were grown for 5 h at 35 °C in CAMHB, from an initial optical density of 0.05 at 600 nm (OD600), and then diluted 1:20 and in the presence of different concentrations of the compounds tested. Cultures were centrifuged for 10 min at 13,100 rpm, the supernatant was discarded, and pellets were suspended in a Z-buffer (NaH2PO4 40 mM, Na2HPO4 60 mM, MgSO4 1 mM, KCl 10 mM). Cultures OD600 were measured, and bacteria were then lysed with lysozyme (1 mg/mL) and β-mercaptoethanol 50 mM for 30 min. Lysates were centrifuged for 10 min at 13,100 rpm, and supernatants were incubated for 5 min at 30 °C with the substrate orthonitrophenyl-β-galactoside (ONPG; Sigma Aldrich). Reactions were stopped with Na2CO3 1M, supernatants OD420 were measured, and Miller units were calculated. A decrease in β-galactosidase activity indicated binding of the test compound to the riboswitch. Guanine and oxacillin were used as […] controls, respectively. The formula to measure Miller units is as follows: Millerunits=1000×OD420/t·v·OD600
Here, t represents the time of incubation with ONPG, and v represents the volume of the reaction.

Data set [13] concerns Staphylococcus aureus ATCC 29213. Description: Broth microdilution MIC. The settings on record: ATCC29213, read-out: Broth Microdilution MIC.
Data set [14] in a line: MTT assay. The data set is classed as cell-based. The settings on record: bovine, MAC-T cells, 24 h.
Data set [15] relates to Enterococcus faecalis ATCC 29212. In words: Broth microdilution MIC. The settings on record: ATCC29212, read-out: Broth Microdilution MIC.
The nature of data set [16]: LDH release assay. Particulars: bovine, MAC-T cells, 24 h. The class given is cell-based.
The test system of data set [17] is all reference staphylococci strains tested, including MRSA. In words: Broth microdilution MIC, summary over reference staphylococci. Particulars: Staphylococcus aureus, read-out: MIC ranging, against all reference staphylococci strains tested.
For data set [18], the system named is HepG2 and MAC-T cells versus S. aureus Newbould. In words: Selectivity ratios over both assays and both cell lines. The class given is cell-based. The settings on record: over MTT and LDH assays. The procedure: All CC50 values are reported in Table 3, and plots are provided in the Supplementary Information (Supplementary Figure S2). PC371 had no effect on cell viability even at the highest concentrations tested (CC50 > 600 μM) in both the MTT and the LDH assay and for the two cell lines tested. For the three other compounds, in both cell lines and both assays, a correlation was observed between the effect on cell viability and the length of their aliphatic chain. CC50 of PC372 (5 carbons) was higher than that of PC206 (6 carbons), and both were higher than that of PC383 (10 carbons). Indeed, for the MAC-T cells in the MTT assay, the values were >600 μM (PC372), 317 μM (PC206), and 13.5 μM (PC383). Again, for the MAC-T cell line, the values for the LDH assay were >600 μM (PC372 and PC206) and 23.6 μM (PC383). Similar results were obtained with the HepG2 cells. […] Overall, the MAC-T cells tolerated better exposure to the compounds than the HepG2 cells. To assess the selectivity of the PC2 analogs towards S. aureus, selectivity ratios were calculated. These ratios were obtained by dividing the cytotoxicity CC50 values of an analog by its MIC against S. aureus Newbould. It was not possible to calculate the selectivity ratio for PC371 as its CC50 and MIC values exceeded the maximum values tested.

The mark [19] stands for this setting: read-out: MIC against all tested bacterial strains.
The mark [20] stands for this setting: CMRSA2, S. aureus CMRSA-2, read-out: Broth Microdilution MIC.
Setting [21] is: CMRSA10, S. aureus CMRSA-10, read-out: Broth Microdilution MIC.

For `O[C@@H](CS)[C@@H](O)CS` (racemic) [DTT, dithiothreitol, reference compound], the MIC in data set [1] (read-out: MIC of DTT) was over 75 mM.
On to `Nc1nc(N)c(N)c(O)n1` [PC1, 2,5,6-triaminopyrimidine-4-one, reference compound], for which, in data set [2], the Chemical stability result is “chemically unstable”. Besides, the MIC was over 128 µg/mL in data set [3] (in the presence of 1.5 mM DTT); 1 µg/mL in data set [4] (CMRSA2, S. aureus CMRSA-2, in the presence of 1.5 mM DTT, read-out: Broth Microdilution MIC); 2 µg/mL in [5] (CMRSA10, S. aureus CMRSA-10, in the presence of 1.5 mM DTT, read-out: Broth Microdilution MIC). The “Binding to the guanine riboswitch” value in [6] is given as “binding the guanine riboswitch of S. aureus”.
`Nc1cc(O)nc(N)n1` [PC2]: the Chemical stability entry in [2] is reported as “more chemically stable”. Besides, in the data set with S. aureus, the “Antimicrobial activity against S. aureus” value is reported as “much lower antimicrobial activity”. Also, the “Binding to the guanine riboswitch” value in data set [6] is reported as “bind the riboswitch ex vivo”.
On to `CCCNc1cc(N)nc(N)n1` [PC371], for which the MIC was over 128 µg/mL in data set [7]; over 128 µg/mL in [8]; over 128 µg/mL in data set [11]; over 128 µg/mL in data set [3]; over 128 µg/mL in [4] (CMRSA2, read-out: Broth Microdilution MIC); over 128 µg/mL in data set [5] (CMRSA10, read-out: Broth Microdilution MIC). Also, the MIC in data set [1] (setting [19]), in [13] and in data set [15] was over 128 µg/mL throughout. Moreover, the CC50 at 24 h in “MTT assay [9]”, in “LDH release assay [10]”, in “MTT assay [14]” and in the data set “LDH release assay [16]” was over 600 µM each time. Moreover, the “Effect on Miller units” value in data set [12] (512 and 1024 μg/mL, one experiment) is recorded as “did not have any effect on the reporter gene expression”.
On to `CCCCCNc1cc(N)nc(N)n1` [PC372], for which the MIC was 8 µg/mL (≈ 41 µM) in data set [7]; over 128 µg/mL in [8]; over 128 µg/mL in data set [11]; 128 µg/mL (≈ 656 µM) in data set [3]; 16 µg/mL (≈ 81.9 µM) in data set [4] (setting [20]); 8 µg/mL (≈ 41 µM) in [5] (setting [21]). For the same molecule, the MIC in [13] is 16 µg/mL (≈ 81.9 µM); in data set [17] it was 8 to 16 µg/mL (≈ 41 to 81.9 µM); in data set [15], over 128 µg/mL. The CC50 (as a rule, the concentration that lowers cell viability or growth by half) at 24 h in “MTT assay [9]” was 341 ± 32 µM; in “LDH release assay [10]”, 394 ± 15 µM; in “MTT assay [14]” it was over 600 µM; in the data set “LDH release assay [16]”, over 600 µM. Further, the “Miller units remaining, relative to the untreated condition” value in [12] (64 µg/mL) was 50%. Besides, in data set [18], the “Selectivity ratio (CC50/MIC against S. aureus Newbould), overall” value was “above 3.9”.
Regarding `CCCCCCCCCCNc1cc(N)nc(N)n1` [PC383], the MIC worked out at 4 µg/mL (≈ 15.1 µM) in [7]; 8 µg/mL (≈ 30.1 µM) in data set [8]; 16 µg/mL (≈ 60.3 µM) in [11]; 4 µg/mL (≈ 15.1 µM) in data set [3]; 4 µg/mL (≈ 15.1 µM) in data set [4] (setting [20]); 4 µg/mL (≈ 15.1 µM) in data set [5] (setting [21]). In addition, the MIC in [1] (setting [19]) was 4 to 16 µg/mL; in data set [13], 4 µg/mL (≈ 15.1 µM); in [15], 4 µg/mL (≈ 15.1 µM). In addition, the half-maximal cytotoxic concentration (CC50) at 24 h in “MTT assay [9]” was determined as 11.7 ± 5.8 µM; in the data set “LDH release assay [10]” it was 6.6 ± 0.7 µM; in “MTT assay [14]” it was 13.5 ± 1.5 µM; in the data set “LDH release assay [16]”, 23.6 ± 8.4 µM. For the same molecule, the “Effect on Miller units” value in [12] (highest evaluated dose 2 µg/mL) is “did not impact Miller units’ expression”. Besides, in [18], the “Selectivity ratio (CC50/MIC against S. aureus Newbould), overall” value is about 1.

The values above are taken from PMC10451377, “Rationally Designed Pyrimidine Compounds: Promising Novel Antibiotics for the Treatment of Staphylococcus aureus-Associated Bovine Mastitis” (Antibiotics, 2023).
